Experimental data reported in the OligoGym collection.
Values joined by “and” are separate entries in the source; they are usually repeats but may differ in a detail not shown here. Identical values can stand only once. HELM strings list units from the 5' end as sugar, base in round brackets, then linkage (d deoxyribose, r ribose, m 2'-O-methyl, p phosphodiester). Methylation of C is not given here. [moe] = 2'-O-(2-methoxyethyl) (MOE); [cEt] = constrained ethyl (cEt); [sp] = phosphorothioate linkage

Target: HBV
Settings: ASO

“RNA1{[moe](A)[sp].[moe](G)[sp].[moe](C)[sp].d(G)[sp].d(A)[sp].d(A)[sp].d(G)[sp].d(T)[sp].d(G)[sp].d(C)[sp].d(A)[sp].d(C)[sp].d(A)[sp].[cEt](C)[sp].[cEt](G)[sp].[cEt](G)}$$$$V2.0” was tested, and the target mRNA inhibition (HepG2, 0.0092593 µM) was 17%, the target mRNA inhibition (HepG2, 0.0277778 µM) was 49% and the target mRNA inhibition (HepG2, 0.07 µM) was 82% and 86%. The target mRNA inhibition (HepG2, 0.0833333 µM) was 79% and the target mRNA inhibition (HepG2, 0.25 µM) was 90%.

For “RNA1{[moe](A)[sp].[moe](G)[sp].[moe](G)[sp].[moe](C)[sp].d(A)[sp].d(T)[sp].d(A)[sp].d(G)[sp].d(C)[sp].d(A)[sp].d(G)[sp].d(C)[sp].d(A)[sp].[moe](G)[sp].[moe](G)[sp].[moe](A)}$$$$V2.0”, the target mRNA inhibition (HepG2, 0.07 µM) was 52% and 36%.

In the case of “RNA1{[moe](A)[sp].[moe](G)[sp].[moe](G)[sp].[moe](T)[sp].d(G)[sp].d(A)[sp].d(A)[sp].d(G)[sp].d(C)[sp].d(G)[sp].d(A)[sp].d(A)[sp].d(G)[sp].[moe](T)[sp].[moe](G)[sp].[moe](C)}$$$$V2.0”, the target mRNA inhibition (HepG2, 0.07 µM) is reported as 3% and 19%.

For “RNA1{[moe](A)[sp].[moe](G)[sp].[moe](T)[sp].[moe](T)[sp].[moe](C)[sp].d(C)[sp].d(G)[sp].d(C)[sp].d(A)[sp].d(G)[sp].d(T)[sp].d(A)[sp].d(T)[sp].d(G)[sp].[moe](G)[sp].[moe](A)[sp].[moe](T)}$$$$V2.0”, the target mRNA inhibition (HepG2, 0.07 µM) was 56% and 49%.

For “RNA1{[moe](A)[sp].[moe](G)[sp].[moe](T)[sp].d(C)[sp].d(C)[sp].d(A)[sp].d(C)[sp].d(C)[sp].d(A)[sp].d(C)[sp].d(G)[sp].d(A)[sp].d(G)[sp].[cEt](T)[sp].[cEt](C)[sp].[cEt](T)}$$$$V2.0”, the target mRNA inhibition (HepG2, 0.07 µM) was 35% and 29%.

With “RNA1{[moe](A)[sp].[moe](G)[sp].d(G)[sp].d(A)[sp].d(G)[sp].d(T)[sp].d(T)[sp].d(C)[sp].d(C)[sp].d(G)[sp].d(C)[sp].[moe](A)[sp].[moe](G)[sp].[moe](T)[sp].[moe](A)[sp].[moe](T)}$$$$V2.0” the target mRNA inhibition (HepG2, 0.07 µM) was 50% and 37%.

In the case of “RNA1{[moe](A)[sp].[moe](G)[sp].d(G)[sp].d(C)[sp].d(A)[sp].d(T)[sp].d(A)[sp].d(G)[sp].d(C)[sp].d(A)[sp].d(G)[sp].[moe](C)[sp].[moe](A)[sp].[moe](G)[sp].[moe](G)[sp].[moe](A)[sp].[moe](T)}$$$$V2.0”, the target mRNA inhibition (HepG2, 0.07 µM) is reported as 75% and 68%.

With “RNA1{[moe](A)[sp].[moe](G)[sp].d(G)[sp].d(T)[sp].d(G)[sp].d(A)[sp].d(A)[sp].d(G)[sp].d(C)[sp].d(G)[sp].d(A)[sp].[moe](A)[sp].[moe](G)[sp].[moe](T)[sp].[moe](G)[sp].[moe](C)}$$$$V2.0” the target mRNA inhibition (HepG2, 0.07 µM) was 70% and 60%.

In the case of “RNA1{[moe](A)[sp].[moe](G)[sp].d(T)[sp].d(T)[sp].d(C)[sp].d(C)[sp].d(G)[sp].d(C)[sp].d(A)[sp].d(G)[sp].d(T)[sp].[moe](A)[sp].[moe](T)[sp].[moe](G)[sp].[moe](G)[sp].[moe](A)}$$$$V2.0”, the target mRNA inhibition (HepG2, 0.07 µM) is reported as 63% and 64%.

“RNA1{[moe](A)[sp].[moe](T)[sp].[moe](G)[sp].[moe](A)[sp].d(G)[sp].d(G)[sp].d(C)[sp].d(A)[sp].d(T)[sp].d(A)[sp].d(G)[sp].d(C)[sp].d(A)[sp].[moe](G)[sp].[moe](C)[sp].[moe](A)}$$$$V2.0” was tested, and the target mRNA inhibition (HepG2, 0.07 µM) was 54% and 49%.

For “RNA1{[moe](A)[sp].[moe](T)[sp].[moe](T)[sp].[moe](T)[sp].[moe](A)[sp].[moe](T)[sp].d(G)[sp].d(C)[sp].d(C)[sp].d(T)[sp].d(A)[sp].d(C)[sp].d(A)[sp].d(G)[sp].d(C)[sp].[moe](C)[sp].[moe](T)}$$$$V2.0”, the target mRNA inhibition (HepG2, 0.0092593 µM) was 0%, the target mRNA inhibition (HepG2, 0.0277778 µM) was 12% and the target mRNA inhibition (HepG2, 0.07 µM) was 74% and 57%. The target mRNA inhibition (HepG2, 0.0833333 µM) was 24% and the target mRNA inhibition (HepG2, 0.25 µM) was 46%.

In the case of “RNA1{[moe](A)[sp].[moe](T)[sp].[moe](T)[sp].d(T)[sp].d(A)[sp].d(T)[sp].d(G)[sp].d(C)[sp].d(C)[sp].d(T)[sp].d(A)[sp].d(C)[sp].d(A)[sp].[cEt](G)[sp].[cEt](C)[sp].[cEt](C)}$$$$V2.0”, the target mRNA inhibition (HepG2, 0.07 µM) is reported as 47% and 65%.
